Experimental data published in patent publication US20260048047A1, “SMALL-MOLECULE ACTIVATORS OF MYCOBACTERIUM TUBERCULOSIS ADENYLYL CYCLASE” (priority 2022, published 2026).

What follows are molecules tested on M. tuberculosis (assay: Extracellular activity against M. tuberculosis in cholesterol media (Alamar Blue reduction assay)). Details: Mycobacterium tuberculosis, 240 h, 7H12-Cholesterol media, 10 days; read-out: Cholesterol broth: alamar blue--EC50.
Assay type: cell-based, Mycobacterium tuberculosis

`Cc1nonc1CC(=O)N1CCC(c2nc(-c3ccc(Cl)cc3Cl)no2)CC1` [Compound 94, 1-(4-(3-(2,4-dichlorophenyl)-1,2,4-oxadiazol-5-yl)piperidin-1-yl)-2-(4-methyl-1,2,5-oxadiazol-3-yl)ethan-1-one] was tested. Which EC50 did it give?
Its EC50 is 146 nM.

With `Cc1nonc1CC(=O)N1CCC(c2nc(-c3ccc(Cl)c(Cl)c3)no2)CC1` [Compound 95, 1-(4-(3-(3,4-dichlorophenyl)-1,2,4-oxadiazol-5-yl)piperidin-1-yl)-2-(4-methyl-1,2,5-oxadiazol-3-yl)ethan-1-one] as the molecule, how does the EC50 read?
The EC50 was 64.4 nM.

For `Cc1nonc1CC(=O)N1CCC(O)(c2nc(-c3ccc(Cl)c(Cl)c3)no2)CC1` [Compound 96, 1-(4-(3-(3,4-dichlorophenyl)-1,2,4-oxadiazol-5-yl)-4-hydroxypiperidin-1-yl)-2-(4-methyl-1,2,5-oxadiazol-3-yl)ethan-1-one], which EC50 is on record?
Its EC50 is 610 nM.

With `Cc1nonc1CC(=O)N1CCC(n2nnc(-c3ccc(Cl)cc3)n2)CC1` [Compound 97, 1-(4-(5-(4-chlorophenyl)-2H-tetrazol-2-yl)piperidin-1-yl)-2-(4-methyl-1,2,5-oxadiazol-3-yl)ethan-1-one] as the molecule, how does the EC50 read?
Its EC50 is 149 nM.

How did the EC50 turn out when `Cc1nonc1CC(=O)N1CCC(c2nc(-c3ccc(Cl)cc3)no2)CC1` [Compound 98, 1-(4-(3-(4-chlorophenyl)-1,2,4-oxadiazol-5-yl)piperidin-1-yl)-2-(4-methyl-1,2,5-oxadiazol-3-yl)ethan-1-one] was run?
The EC50 was 114 nM.

Which EC50 does the source give for `Cc1nonc1CC(=O)N1CCC(c2nc(-c3cccc(Cl)c3)no2)CC1` [Compound 99, 1-(4-(3-(3-chlorophenyl)-1,2,4-oxadiazol-5-yl)piperidin-1-yl)-2-(4-methyl-1,2,5-oxadiazol-3-yl)ethan-1-one] here?
Its EC50 is 530 nM.

How did the EC50 turn out when `Cc1nonc1CC(=O)N1CCC(c2nc(C3CCC(C(F)(F)F)CC3)no2)CC1` (stereo not shown) [Compound 100, 2-(4-methyl-1,2,5-oxadiazol-3-yl)-1-(4-(3-(4-(trifluoromethyl)cyclohexyl)-1,2,4-oxadiazol-5-yl)piperidin-1-yl)ethan-1-one] was run?
Its EC50 is 688 nM.

For `Cc1nonc1CC(=O)N1CCC(c2nc(-c3ccc(Cl)c(OC(F)(F)F)c3)no2)CC1` [Compound 101], which EC50 is on record?
The EC50 was 731 nM.

Which EC50 does the source give for `Cc1nonc1CC(=O)N1CCC(c2nc(-c3ccc(OC(F)(F)F)cc3)no2)CC1` [Compound 102, 2-(4-methyl-1,2,5-oxadiazol-3-yl)-1-(4-(3-(4-(trifluoromethoxy)phenyl)-1,2,4-oxadiazol-5-yl)piperidin-1-yl)ethan-1-one] here?
Its EC50 is 167 nM.

`Cc1nonc1CC(=O)N1CCC(c2nc(-c3cccc(OC(F)(F)F)c3)no2)CC1` [Compound 103, 2-(4-methyl-1,2,5-oxadiazol-3-yl)-1-(4-(3-(3-(trifluoromethoxy)phenyl)-1,2,4-oxadiazol-5-yl)piperidin-1-yl)ethan-1-one] was tested. Which EC50 did it give?
Its EC50 is 383 nM.

How did the EC50 turn out when `Cc1nonc1CC(=O)N1CCC(c2nc(-c3ccccc3OC(F)(F)F)no2)CC1` [Compound 104, 2-(4-methyl-1,2,5-oxadiazol-3-yl)-1-(4-(3-(2-(trifluoromethoxy)phenyl)-1,2,4-oxadiazol-5-yl)piperidin-1-yl)ethan-1-one] was run?
Its EC50 is 2960 nM.

How did the EC50 turn out when `Cc1nonc1CC(=O)N1CCC(c2nc(-c3ccc(Cl)c(C(F)(F)F)c3)no2)CC1` [Compound 105, 1-(4-(3-(4-chloro-3-(trifluoromethyl)phenyl)-1,2,4-oxadiazol-5-yl)piperidin-1-yl)-2-(4-methyl-1,2,5-oxadiazol-3-yl)ethan-1-one] was run?
Its EC50 is 744 nM.

`Cc1nonc1CC(=O)N1CCC(c2nc(-c3ccc(C(F)(F)F)cc3)no2)CC1` [Compound 106, 2-(4-methyl-1,2,5-oxadiazol-3-yl)-1-(4-(3-(4-(trifluoromethyl)phenyl)-1,2,4-oxadiazol-5-yl)piperidin-1-yl)ethan-1-one] was tested. Which EC50 did it give?
Its EC50 is 754 nM.

`Cc1nonc1CC(=O)N1CCC(c2nc(-c3ccc(OC(F)F)cc3)no2)CC1` [Compound 108, 1-(4-(3-(4-(difluoromethoxy)phenyl)-1,2,4-oxadiazol-5-yl)piperidin-1-yl)-2-(4-methyl-1,2,5-oxadiazol-3-yl)ethan-1-one] was tested. Which EC50 did it give?
The EC50 was 716 nM.

How did the EC50 turn out when `Cc1nonc1CC(=O)N1CCC(c2nc(C3CCC(F)(F)C3)no2)CC1` (stereo not shown) [Compound 109, 1-(4-(3-(3,3-difluorocyclopentyl)-1,2,4-oxadiazol-5-yl)piperidin-1-yl)-2-(4-methyl-1,2,5-oxadiazol-3-yl)ethan-1-one] was run?
Its EC50 is 3250 nM.

Which EC50 does the source give for `Cc1nonc1CC(=O)N1CCC(c2nc(C3CCC(F)(F)CC3)no2)CC1` [Compound 110, 1-(4-(3-(4,4-difluorocyclohexyl)-1,2,4-oxadiazol-5-yl)piperidin-1-yl)-2-(4-methyl-1,2,5-oxadiazol-3-yl)ethan-1-one] here?
Its EC50 is 969 nM.

For `Cc1nonc1CC(=O)N1CCC(O)(c2nc(C3CCC(F)(F)CC3)no2)CC1` [Compound 111, 1-(4-(3-(4,4-difluorocyclohexyl)-1,2,4-oxadiazol-5-yl)-4-hydroxypiperidin-1-yl)-2-(4-methyl-1,2,5-oxadiazol-3-yl)ethan-1-one], which EC50 is on record?
Its EC50 is > 10000 nM.

Which EC50 does the source give for `Cc1nonc1CC(=O)N1CCC(c2nc(C3CCCC(F)(F)C3)no2)CC1` (stereo not shown) [Compound 112, 1-(4-(3-(3,3-difluorocyclohexyl)-1,2,4-oxadiazol-5-yl)piperidin-1-yl)-2-(4-methyl-1,2,5-oxadiazol-3-yl)ethan-1-one] here?
Its EC50 is 2670 nM.

`Cc1nonc1CC(=O)N1CCC(c2nc([C@@H]3CC[C@H](F)C3)no2)CC1` [Compound 113, 1-(4-(3-((1R,3S)-3-fluorocyclopentyl)-1,2,4-oxadiazol-5-yl)piperidin-1-yl)-2-(4-methyl-1,2,5-oxadiazol-3-yl)ethan-1-one] was tested. Which EC50 did it give?
The EC50 was > 25000 nM.

For `Cc1nonc1CC(=O)N1CCC(c2nc([C@@H]3CC[C@@H](F)C3)no2)CC1` [Compound 114, 1-(4-(3-((1R,3R)-3-fluorocyclopentyl)-1,2,4-oxadiazol-5-yl)piperidin-1-yl)-2-(4-methyl-1,2,5-oxadiazol-3-yl)ethan-1-one], which EC50 is on record?
The EC50 was 7040 nM.

For `Cc1nonc1CC(=O)N1CCC(c2nc(C3CCC(F)CC3)no2)CC1` (stereo not shown) [Compound 115, 1-(4-(3-(4-fluorocyclohexyl)-1,2,4-oxadiazol-5-yl)piperidin-1-yl)-2-(4-methyl-1,2,5-oxadiazol-3-yl)ethan-1-one], which EC50 is on record?
The EC50 was > 25000 nM.

Which EC50 does the source give for `Cc1nonc1CC(=O)N1CCC(c2noc(C34CC(F)(C3)C4)n2)CC1` [Compound 116, 1-(4-(5-(3-fluorobicyclo[1.1.1]pentan-1-yl)-1,2,4-oxadiazol-3-yl)piperidin-1-yl)-2-(4-methyl-1,2,5-oxadiazol-3-yl)ethan-1-one] here?
Its EC50 is 9230 nM.

How did the EC50 turn out when `Cc1nonc1CC(=O)N1CCC(c2nc(-c3ccc(C(F)(F)F)c(F)c3)no2)CC1` [Compound 117] was run?
Its EC50 is 278 nM.

`Cc1nonc1CC(=O)N1CCC(c2nc(-c3ccc(Cl)c(F)c3)no2)CC1` [Compound 118, 1-(4-(3-(4-chloro-3-fluorophenyl)-1,2,4-oxadiazol-5-yl)piperidin-1-yl)-2-(4-methyl-1,2,5-oxadiazol-3-yl)ethan-1-one] was tested. Which EC50 did it give?
Its EC50 is 80.5 nM.

For `Cc1nonc1CC(=O)N1CCC(c2nc(-c3cc(F)cc(Cl)c3)no2)CC1` [Compound 119, 1-(4-(3-(3-chloro-5-fluorophenyl)-1,2,4-oxadiazol-5-yl)piperidin-1-yl)-2-(4-methyl-1,2,5-oxadiazol-3-yl)ethan-1-one], which EC50 is on record?
The EC50 was 470 nM.

`Cc1nonc1CC(=O)N1CCC(c2nc(-c3ccc(Cl)cc3F)no2)CC1` [Compound 120, 1-(4-(3-(4-chloro-2-fluorophenyl)-1,2,4-oxadiazol-5-yl)piperidin-1-yl)-2-(4-methyl-1,2,5-oxadiazol-3-yl)ethan-1-one] was tested. Which EC50 did it give?
The EC50 was 370 nM.

Which EC50 does the source give for `Cc1nonc1CC(=O)N1CCC(c2nc(-c3ccc(F)cc3Cl)no2)CC1` [Compound 121, 1-(4-(3-(2-chloro-4-fluorophenyl)-1,2,4-oxadiazol-5-yl)piperidin-1-yl)-2-(4-methyl-1,2,5-oxadiazol-3-yl)ethan-1-one] here?
Its EC50 is 380 nM.

How did the EC50 turn out when `Cc1nonc1CC(=O)N1CCC(c2nc(-c3ccc(F)cc3F)no2)CC1` [Compound 122, 1-(4-(3-(2,4-difluorophenyl)-1,2,4-oxadiazol-5-yl)piperidin-1-yl)-2-(4-methyl-1,2,5-oxadiazol-3-yl)ethan-1-one] was run?
The EC50 was 390 nM.

For `Cc1nonc1CC(=O)N1CCC(c2nc(-c3ccc(F)cc3C(F)(F)F)no2)CC1` [Compound 123], which EC50 is on record?
The EC50 was 1480 nM.

With `Cc1nonc1CC(=O)N1CCC(c2nc(-c3ccc(F)c(C(F)(F)F)c3)no2)CC1` [Compound 124] as the molecule, how does the EC50 read?
The EC50 was 334 nM.

With `Cc1nonc1CC(=O)N1CCC(c2nc(-c3ccc(F)c(OC(F)(F)F)c3)no2)CC1` [Compound 125] as the molecule, how does the EC50 read?
The EC50 was 288 nM.

For `Cc1nonc1CC(=O)N1CCC(n2ccc(-c3ccc(F)cc3)n2)CC1` [Compound 127, 1-(4-(3-(4-fluorophenyl)-1H-pyrazol-1-yl)piperidin-1-yl)-2-(4-methyl-1,2,5-oxadiazol-3-yl)ethan-1-one], which EC50 is on record?
The EC50 was 2970 nM.

How did the EC50 turn out when `Cc1nonc1CC(=O)N1CCC(n2cc(-c3ccc(F)cc3)nn2)CC1` [Compound 128, 1-(4-(4-(4-fluorophenyl)-1H-1,2,3-triazol-1-yl)piperidin-1-yl)-2-(4-methyl-1,2,5-oxadiazol-3-yl)ethan-1-one] was run?
The EC50 was > 10000 nM.

How did the EC50 turn out when `Cc1nonc1CC(=O)N1CCC(c2nnc(-c3ccc(F)cc3)o2)CC1` [Compound 129, 1-(4-(5-(4-fluorophenyl)-1,3,4-oxadiazol-2-yl)piperidin-1-yl)-2-(4-methyl-1,2,5-oxadiazol-3-yl)ethan-1-one] was run?
The EC50 was > 10000 nM.

How did the EC50 turn out when `Cc1nonc1CC(=O)N1CCC(c2nc(-c3ccc(F)cc3)no2)CC1` [Compound 130, 1-(4-(3-(4-fluorophenyl)-1,2,4-oxadiazol-5-yl)piperidin-1-yl)-2-(4-methyl-1,2,5-oxadiazol-3-yl)ethan-1-one] was run?
The EC50 was 275 nM.

With `Cc1nonc1CC(=O)N1CCC(c2noc(-c3ccc(F)cc3)n2)CC1` [Compound 132, 1-(4-(5-(4-fluorophenyl)-1,2,4-oxadiazol-3-yl)piperidin-1-yl)-2-(4-methyl-1,2,5-oxadiazol-3-yl)ethan-1-one] as the molecule, how does the EC50 read?
The EC50 was 1070 nM.

With `Cc1nonc1CC(=O)N1CCC(c2nc(-c3ccc(F)cc3)co2)CC1` [Compound 134, 1-(4-(4-(4-fluorophenyl)oxazol-2-yl)piperidin-1-yl)-2-(4-methyl-1,2,5-oxadiazol-3-yl)ethan-1-one] as the molecule, how does the EC50 read?
Its EC50 is 1430 nM.
